The values that follow come from patent publication US9315500B2, “Bicyclic heteroaryl cycloalkyldiamine derivatives” (NOVARTIS AG, priority 2012, dated 2016).

The target of this assay is SYK (SYK(2-635)) (Homo sapiens (Human), UniProt P43405). The assay can be described thus: SYK enzyme assay (chip based microfluidic mobility shift assay). The format is biochemical. As to conditions: SYK kinase, 4 μM ATP/peptide solution, 30° C., 60 minutes, Caliper mobility shift. The procedure: A number of compounds of the present invention were assayed in a chip based microfluidic mobility shift assay. All assays were performed in 384 well microtiter plates. Each assay plate contained 8-point serial dilutions for 40 test compounds, as well as four 8-point serial dilutions of staurosporine as reference compound, plus 16 high- and 16 low controls. Liquid handling and incubation steps were done on a Thermo CatX workstation equipped with a Innovadyne Nanodrop Express. Between pipetting steps, tips were cleaned in wash cycles using wash buffer. The assay plates were prepared by addition of 50 nl per well of compound solution in 90% DMSO. The kinase reactions were started by stepwise addition of 4.5 μl per well of peptide/ATP-solution (50 mM HEPES, pH 7.5, 1 mM DTT, 0.02% Tween20, 0.02% BSA, 0.6% DMSO, 10 mM beta-glycerophosphate, and 10 μM sodium orthovanadate, 1 mM MgCl2, 3 mM MnCl2, 4 μM ATP, 4 μM peptide (5-Fluo-Ahx-GAPDYENLQELNKK-Amid) and 4.5 μl per well of enzyme solution (50 mM HEPES, pH 7.5, 1 mM DTT, 0.02% Tween20, 0.02% BSA, 0.6% DMSO, 10 mM beta-glycerophosphate, and 10 μM sodium orthovanadate, 1 mM MgCl2, 3 mM MnCl2, 4 nM SYK (SYK(2-635), produced in-house from insect cells). Kinase reactions were incubated at 30° C. for 60 minutes and subsequently terminated by addition of 16 μl per well of stop solution (100 mM HEPES pH 7.5, 5% DMSO, 0.1% Caliper coating reagent, 10 mM EDTA, and 0.015% Brij35). Plates with terminated kinase reactions were transferred to the Caliper LC3000 workstations for reading. Phosphorylated and unphosphorylated peptides were separated using the Caliper microfluidic mobility shift technology. Briefly, samples from terminated kinase reactions were applied to the chip. Analytes are transported through the chip by constant buffer flow and the migration of the substrate peptide is monitored by the fluorescence signal of its label. Phosphorylated peptide (product) and unphosphorylated peptide (substrate) are separated in an electric field by their charge/mass ratio. Kinase activities were calculated from the amounts of formed phospho-peptide. IC50 values were determined from percent inhibition values at different compound concentrations by non-linear regression analysis.
Test compounds were dissolved in DMSO (10 mM) and transferred into 1.4 mL flat bottom or V-shaped Matrix tubes carrying a unique 2D matrix. The stock solutions were stored at […] if not used immediately. For the test procedure the vials were defrosted and identified by a scanner whereby a working sheet was generated that guided the subsequent working steps.
Compound dilutions were made in 96 well plates. This format enabled the assay of maximally 40 individual test compounds at 8 concentrations (single points) including 4 reference compounds. The dilution protocol included the production of “pre-dilution plates”, “master plates” and “assay plates”.
Pre-dilution plates: 96 polypropylene well plates were used as pre-dilution plates. A total of 4 pre-dilution plates were prepared including 10 test compounds each on the plate positions A1-A10, one standard compound at A11 and one DMSO control at A12. All dilution steps were done on a HamiltonSTAR robot.
Master plates: 30 μL of individual compound dilutions including standard compound and controls of the 4 “pre-dilution plates” were transferred into a 384 “master plate” including the following concentrations 1′810, 362, 72.5, […], 14.5, 2.9, 0.58 and 0.12 μM, respectively in 90% of DMSO.
Assay plates: Identical “assay plates” were then prepared by pipetting 50 nL each of compound dilutions of the “master plates” into 384-well “assay plates” by means of a HummingBird 384-channel dispenser. These plates were used directly for the assay which was performed in a total volume of 9.05 μL. This led to a final compound concentration of 10, 2.0, 0.4, 0.08, 0.016, 0.0032, 0.00064 and 0.000128 μM and a final DMSO concentration of 0.5% in the assay.

One may read the IC50 as the concentration needed to halve the response being measured. Regarding `Cc1ccc(Nc2nc(N[C@@H]3CCCC[C@@H]3N)cc3cn[nH]c(=O)c23)c2cc[nH]c12` [Example 2.15, 7-((1R,2S)-2-Amino-cyclohexylamino)-5-(7-methyl-1H-indol-4-ylamino)-3H-pyrido[3,4-d]pyridazin-4-one], the IC50 was determined as 9 nM.

Consider `N[C@H]1CCCC[C@H]1Nc1cc2cn[nH]c(=O)c2c(Nc2cccc3sccc23)n1` [Example 2.7, 7-((1R,2S)-2-Amino-cyclohexylamino)-5-(benzo[b]thiophen-4-ylamino)-3H-pyrido[3,4-d]pyridazin-4-one], for which the IC50 worked out at 2.1 nM.

Regarding `N[C@H]1CCCC[C@H]1Nc1cc2cn[nH]c(=O)c2c(Nc2cccc3[nH]ccc23)n1` [Example 2.9, 7-((1R,2S)-2-Amino-cyclohexylamino)-5-(1H-indol-4-ylamino)-3H-pyrido[3,4-d]pyridazin-4-one], the IC50 was 2.7 nM.

In the case of `N[C@H]1CCCC[C@H]1Nc1cc2cn[nH]c(=O)c2c(Nc2cccc3[nH]ncc23)n1` [Example 2.10, 7-((1R,2S)-2-Amino-cyclohexylamino)-5-(1H-indazol-4-ylamino)-3H-pyrido[3,4-d]pyridazin-4-one], the IC50 is 5.2 nM.

Turning to `N[C@H]1CCCC[C@H]1Nc1cc2cn[nH]c(=O)c2c(Nc2cccc3ncccc23)n1` [Example 2.16, 7-((1R,2S)-2-Amino-cyclohexylamino)-5-(quinolin-5-ylamino)-3H-pyrido[3,4-d]pyridazin-4-one], the IC50 was determined as 9 nM.

As to `N[C@H]1CCCC[C@H]1Nc1cc2cn[nH]c(=O)c2c(Nc2ccc3ncccc3c2)n1` [Example 2.5, 7-((1R,2S)-2-Amino-cyclohexylamino)-5-(quinolin-6-ylamino)-3H-pyrido[3,4-d]pyridazin-4-one], the IC50 worked out at 1.6 nM.

On to `N[C@H]1CCCC[C@H]1Nc1cc2cn[nH]c(=O)c2c(Nc2cnc3ccccc3c2)n1` [Example 2.11, 7-((1R,2S)-2-Amino-cyclohexylamino)-5-(quinolin-3-ylamino)-3H-pyrido[3,4-d]pyridazin-4-one], for which the IC50 was 5.4 nM.

For `N[C@H]1CCCC[C@H]1Nc1cc2cn[nH]c(=O)c2c(Nc2cccc3cccnc23)n1` [Example 2.20, 7-((1R,2S)-2-Amino-cyclohexylamino)-5-(quinolin-8-ylamino)-3H-pyrido[3,4-d]pyridazin-4-one], the IC50 was 45 nM.

As for `Cc1ccc2c(Nc3nc(N[C@@H]4CCCC[C@@H]4N)cc4cn[nH]c(=O)c34)cccc2n1` [Example 2.8, 7-((1R,2S)-2-Amino-cyclohexylamino)-5-(2-methyl-quinolin-5-ylamino)-3H-pyrido[3,4-d]pyridazin-4-one], the IC50 was 2.3 nM.

For `Cn1ccc2c(Nc3nc(N[C@@H]4CCCC[C@@H]4N)cc4cn[nH]c(=O)c34)cccc21` [Example 2.2, 7-((1R,2S)-2-Amino-cyclohexylamino)-5-(1-methyl-1H-indol-4-ylamino)-3H-pyrido[3,4-d]pyridazin-4-one], the IC50 turned out to be 0.6 nM.

In the case of `Cc1cc2c(Nc3nc(N[C@@H]4CCCC[C@@H]4N)cc4cn[nH]c(=O)c34)cccc2[nH]1` [Example 2.17, 7-((1R,2S)-2-Amino-cyclohexylamino)-5-(2-methyl-1H-indol-4-ylamino)-3H-pyrido[3,4-d]pyridazin-4-one], the IC50 came to 16 nM.

Consider `N[C@H]1COCC[C@H]1Nc1cc2cn[nH]c(=O)c2c(Nc2cccc3sccc23)n1` [Example 3.2, 7-((3R,4R)-3-Amino-tetrahydro-pyran-4-ylamino)-5-(benzo[b]thiophen-4-ylamino)-3H-pyrido[3,4-d]pyridazin-4-one], for which the IC50 stood at 1.8 nM.

As to `N[C@H]1CCCC[C@H]1Nc1cc2cn[nH]c(=O)c2c(Nc2ccc3nccnc3c2)n1` [Example 2.18, 7-((1R,2S)-2-Amino-cyclohexylamino)-5-(quinoxalin-6-ylamino)-3H-pyrido[3,4-d]pyridazin-4-one], the IC50 turned out to be 26 nM.

As for `Cc1c[nH]c2c(Nc3nc(N[C@@H]4CCOC[C@@H]4N)cc4cn[nH]c(=O)c34)cc(F)cc12` [Example 3.3, 7-((3R,4R)-3-Amino-tetrahydro-pyran-4-ylamino)-5-(5-fluoro-3-methyl-1H-indol-7-ylamino)-3H-pyrido[3,4-d]pyridazin-4-one], the IC50 is 2 nM.

For `Cn1cc2c(Nc3nc(N[C@@H]4CCCC[C@@H]4N)cc4cn[nH]c(=O)c34)cccc2n1` [Example 2.3, 7-((1R,2S)-2-Amino-cyclohexylamino)-5-(2-methyl-2H-indazol-4-ylamino)-3H-pyrido[3,4-d]pyridazin-4-one], the IC50 stood at 1.1 nM.

Take `N[C@H]1COCC[C@H]1Nc1cc2cn[nH]c(=O)c2c(Nc2cccc3cc[nH]c23)n1` [Example 3.4, 7-((3R,4R)-3-Amino-tetrahydro-pyran-4-ylamino)-5-(1H-indol-7-ylamino)-3H-pyrido[3,4-d]pyridazin-4-one]: the IC50 is 32 nM.

For `Cc1c[nH]c2c(Nc3nc(N[C@@H]4CCCC[C@@H]4N)c(F)c4cn[nH]c(=O)c34)cc(F)cc12` [Example 1.1, 7-((1R,2S)-2-Amino-cyclohexylamino)-8-fluoro-5-(5-fluoro-3-methyl-1H-indol-7-ylamino)-3H-pyrido[3,4-d]pyridazin-4-one], the IC50 amounted to 2 nM.

Consider `Cc1c[nH]c2c(Nc3nc(N[C@@H]4CCCC[C@@H]4N)cc4cn[nH]c(=O)c34)cc(F)cc12` [Example 2.4, 7-((1R,2S)-2-Amino-cyclohexylamino)-5-(5-fluoro-3-methyl-1H-indol-7-ylamino)-3H-pyrido[3,4-d]pyridazin-4-one], for which the IC50 worked out at 1.3 nM.

Take `N[C@H]1CCCC[C@H]1Nc1cc2cn[nH]c(=O)c2c(Nc2ccc3cccnc3c2)n1` [Example 2.19, 7-((1R,2S)-2-Amino-cyclohexylamino)-5-(quinolin-7-ylamino)-3H-pyrido[3,4-d]pyridazin-4-one]: the IC50 is 42 nM.

With `Cc1ccc(Nc2nc(N[C@@H]3CCCC[C@@H]3N)cc3cn[nH]c(=O)c23)c2cccnc12` [Example 2.13, 7-((1R,2S)-2-Amino-cyclohexylamino)-5-(8-methyl-quinolin-5-ylamino)-3H-pyrido[3,4-d]pyridazin-4-one], the IC50 was determined as 7 nM.

Consider `N[C@H]1CCCC[C@H]1Nc1cc2cn[nH]c(=O)c2c(Nc2cccc3cc[nH]c23)n1` [Example 2.12, 7-((1R,2S)-2-Amino-cyclohexylamino)-5-(1H-indol-7-ylamino)-3H-pyrido[3,4-d]pyridazin-4-one], for which the IC50 was found to be 7 nM.

On to `N[C@H]1CCCC[C@H]1Nc1nc(Nc2cccc3ncccc23)c2c(=O)[nH]ncc2c1F` [Example 1.2, 7-((1R,2S)-2-Amino-cyclohexylamino)-8-fluoro-5-(quinolin-5-ylamino)-3H-pyrido[3,4-d]pyridazin-4-one], for which the IC50 worked out at 44 nM.

With `Cc1c[nH]c2c(Nc3nc(N[C@@H]4CCCC[C@@H]4N)cc4cn[nH]c(=O)c34)cccc12` [Example 2.1, 7-((1R,2S)-2-Amino-cyclohexylamino)-5-(3-methyl-1H-indol-7-ylamino)-3H-pyrido[3,4-d]pyridazin-4-one], the IC50 is 1.6 nM.

With `Cc1c[nH]c2c(Nc3nc(N[C@@H]4CCOC[C@@H]4N)cc4cn[nH]c(=O)c34)cccc12` [Example 3.1, 7-((3R,4R)-3-Amino-tetrahydro-pyran-4-ylamino)-5-(3-methyl-1H-indol-7-ylamino)-3H-pyrido[3,4-d]pyridazin-4-one], the IC50 turned out to be 9 nM.

`N#Cc1c[nH]c2c(Nc3nc(N[C@@H]4CCCC[C@@H]4N)cc4cn[nH]c(=O)c34)cccc12` [Example 2.14, 7-[7-((1R,2S)-2-Amino-cyclohexylamino)-4-oxo-3,4-dihydro-pyrido[3,4-d]pyridazin-5-ylamino]-1H-indole-3-carbonitrile]: the IC50 was determined as 8 nM.
